What was measured:
Format in all cases: cell-based
HCT116 cells = assay: Cytotoxic activity with CB1, CB2 and GPR55 receptor antagonists, Alamar Blue; details: THCA 0.12 mM
Description: FIGS. 12A-C depict the determination of HCT116 cell viability using Alamar Blue fluorescence (Resazurin assay) as a function of cytotoxic effect. HCT116 cells were seeded (50,000 per well) in triplicate in 500 μL growing media and incubated for 24 h at 37° C. in a humidified 5% CO2-95% air atmosphere. […] Non-treated are the cells without TNF-α and treatments. Relative fluorescence at the excitation/emission of 544/590 nm was measured. Values were calculated as percentage of live cells relative to the non-treated (cells without TNF-α and treatments) control after reducing the autofluorescence of Alamar Blue without cells.
FIG. 12D depicts determination of HCT116 cell viability using Alamar Blue fluorescence (resazurin assay) as a function of cytotoxic effect. HCT116 cells were seeded (50,000 per well) in triplicate in 500 μL growing media and incubated for 24 hours at 37° C. in a humidified 5% CO2-95% air atmosphere. […] Treatments with F7, F1-F9, and combination of fractions without antagonists served as a positive control (Con). Non-treated are the cells without TNF-α and treatments. […] Relative fluorescence at the excitation/emission of 544/590 nm was measured. Values were calculated as percentage of live cells relative to the non-treated (cells without TNF-α and treatments) control after reducing the autofluorescence of Alamar Blue without cells. […]

CB1 = assay: Relative gene expression by qPCR after TNF-α; details: HCT-116; overnight TNF-α; versus GAPDH, 2-ΔΔCT; treated versus non-treated cells
From the text: (§1) Transcripts for CB1, CB2 and GPR55 were detected by qPCR in HCT116 cells.

CB2 = assay: Relative gene expression by qPCR after TNF-α; details: HCT-116; overnight TNF-α; versus GAPDH, 2-ΔΔCT; treated versus non-treated cells
From the text: as §1

GPR55 = assay: Relative gene expression by qPCR after TNF-α; details: HCT-116; overnight TNF-α; versus GAPDH, 2-ΔΔCT; treated versus non-treated cells
From the text: as §1

Row | Molecule | effect of CB2 antagonist (SR144528) on cytotoxic activity (HCT116 cells; C2F 0.2 mg/mL, F7 0.08 mg/mL) | effect of CB1 antagonist (Rimonabant) on cytotoxic activity (HCT116 cells) | Mean relative expression of CB1 (CB1) | Mean relative expression of CB2 (CB2) | Mean relative expression of GPR55 (GPR55)
1 | CCCCCc1cc2c(c(O)c1C(=O)O)[C@@H]1C=C(C)CC[C@H]1C(C)(C)O2 [THCA, tetrahydrocannabinolic acid] | significant reduction in cytotoxic activity | significant reduction in cell cytotoxic activities | – | – | –
2 | TNF-α | – | – | 1.31 | 5.84 | 5.26
